From US20140322315A1, “CYSTEAMINE AND/OR CYSTAMINE FOR TREATING ISCHEMIC INJURY” (The Regents of the University of California, priority 2011, published 2014)

Test system: adiponectin
Assay: Serum total and multimeric adiponectin in subjects with NAFLD treated 24 weeks with EC-cysteamine
Format: in vivo, human
Excerpt: Eleven children ≧10 years, with biopsy-proven NAFLD and an alanine aminotransferase (ALT) level ≧60 IU/L, were enrolled. They were either newly diagnosed or had not received specific therapy for NAFLD such as vitamin E or insulin-sensitizing drugs for at least 3 months before entering the study. All had undertaken standard of care lifestyle changes involving diet and exercise for more than 3 months. The study's primary outcome measure was normalization (≦40 IU/L) or 50% reduction in baseline serum ALT at 24 weeks of EC-cysteamine therapy; these subjects were deemed responders.
Subjects were treated for 24 wks and remained monitored for 24 weeks following its discontinuation. The mean EC-cysteamine dose ingested was 654 mg twice daily or 15.2 mg/kg/day (median dose 900 mg) for 24 wks.
During the pilot study blood was collected at pre-defined intervals. Serum was stored at −80° C. until time of assay. Adequate serum volumes were available in 10 of the 11 subjects with NAFLD and only up to 16 weeks post-treatment.
Total and multimeric adiponectin levels were measured in serum taken from: (1) subject with NAFLD collected at 0 and 24 wks of cysteamine therapy and again 16 wks after stopping therapy (i.e., 40 weeks); (2) pretreated 0-week subjects with NAFLD and adults without NAFLD at room temperature and at 37° C. and also after incubation with cysteamine 90 μM for 1 hour at 37° C.; and (3) pretreated 0-week subjects with NAFLD before and after incubation with cysteamine at varying concentrations (15, 30, 45, 60, 90, 120 μM) for 1 hour at 37° C. to establish dose-response profile.
Sodium dodecyl sulfate polyacrylamide gel electrophoresis (SDS-PAGE) was performed according to standard Laemmli's method. Sample buffer for non-reducing, non-heat denaturing conditions contained 3% SDS; 50 mmol/1 Tris-HCL, pH 6.8 and 20% glycerol. Proteins were separated using 3-8% Tris-Acetate Gels (Invitrogen, Carlsbad Calif.) with Tris-Acetate running buffer per manufacturer instructions. For immunoblotting, proteins were transferred to nitrocellulose membranes. Membranes were washed with Tween (Tris-buffered Saline, 0.1% […]) and incubated with monoclonal antibody (1:500 BD Transduction Laboratories, San Diego, Calif.). After washing with Tris-buffered saline with 0.1% Tween (4×5 min) membranes were incubated with L-COR secondary antibodies (LI-COR Biotechnology, Lincoln Nebr.) at 1:20,000. Adiponectin multimers were detected and quantified using the LICOR imager and software analysis program. Relative distribution of adiponectin multimers was determined by dividing band density by total density (cellular adiponectin) or by total adiponectin as determined by ELISA (Millipore, Billerica, Mass.). The percentage of adionectin multimer was then multiplied by the total adiponectin level to calculate absolute oligomer value.

[1] = after discontinuing therapy at 24 weeks, P=0.01

NCCS.O=C(O)C(O)C(O)C(=O)O (stereo not shown) [cysteamine bitartrate, Cysteamine bitartrate]
mean percent change of HMW adiponectin from baseline (7 responders, 24 weeks): 87.7%
mean percent change of LMW adiponectin from baseline (7 responders, 24 weeks): 33.9%
mean percent change of MMW adiponectin from baseline (7 responders, 24 weeks): 13.7%
mean percent change of total adiponectin from baseline (7 responders, 24 weeks): 57.5%
all adiponectin multimer levels, difference from baseline (40-week timepoint (16 weeks off therapy)): ≤ 2%
LMW adiponectin change between 24-week and 40-week timepoints (after discontinuing therapy at 24 weeks, P=0.009): significant mean percent reduction
MMW adiponectin change between 24-week and 40-week timepoints [1]: significant mean percent reduction
total adiponectin change between 24-week and 40-week timepoints [1]: significant mean percent reduction
HMW adiponectin change between 24-week and 40-week timepoints (after discontinuing therapy at 24 weeks, P=0.02): significant mean percent reduction
mean percent increase of total adiponectin from baseline (all subjects, 0-24 weeks oral EC-cysteamine, P=0.05): 49.3%
mean percent increase of HMW adiponectin from baseline (all subjects, 24 weeks oral EC-cysteamine (15.2 mg/kg/day), P=0.02): 53%
mean percent increase of MMW adiponectin from baseline (all subjects, 24 weeks oral EC-cysteamine, P=0.02): 19%
mean percent increase of LMW adiponectin from baseline (all subjects, 24 weeks oral EC-cysteamine, P=0.03): 29.4%
